Key:
Balb/cJ mice = assay: LPS induced pulmonary neutrophilia in mice; format: in vivo, mouse; conditions: LPS challenged mice; i.n., i.p. or per os
Protocol: Male Balb/cJ mice (Iffa Credo, France) weighing ˜25 g are randomly grouped into a negative control group, positive control group and groups treated with compounds to be assayed). Test compounds, as well as vehicle (DMSO+0.5% methyl-cellulose) (all from Sigma), are administered i.n., ip. or per os two hours prior to administration of lipopolysaccharide (LPS) (E. coli, serotype 0111:B4, Sigma) or two hours prior and two hours after administration of LPS. Test compounds are administered at a single dose (two hours prior the challenge) or divided into two doses (two hours prior and two hours after the challenge). LPS solution in phosphate buffered saline (PBS) (Sigma) is administered intranasally in volume of 60 μL at concentration of 33,33 μg/mL, to all experimental groups except the negative control group, which received the same volume (60 μL) of vehicle PBS. During the challenge, animals were anaesthetized by using intraperitoneal anaesthesia. Animals are euthanized by i.p. anesthesia overdose approximately 24 hours after application of LPS to obtain bronchoalveolar lavage fluid (BALF), which is used to determine total protein concentration as well as concentrations of cytokines, such as IL-1β and TNF-α, absolute number of cells, and percentage of neutrophils in BALF. Bronchoalveolar lavage (BAL) is performed by infusing 1 mL of PBS divided into 3 separate volumes (0.4, 0.3 and 0.3 ml) through trachea into the lungs. The fluid is immediately withdrawn and the cell suspension stored into previously prepared 1.5 mL Eppendorf tube. Bronchoalveolar lavage fluid (BALF) is then centrifuged at […] for 5 min (4° C.). Cells are resuspended in 700 μL of PBS. To prepare cytospins, 320 μL of suspension is centrifuged at 250 rpm for 10 min (Cytospin-3, Shandon Instruments). Cells are stained with Dif-Quik (Dade Behring) to determine percentage of neutrophils by counting of at least 200 cells. The remaining resuspended cells are used for total cell count in BALF analysis (Sysmex SF 3000). […] Accumulation of granulocytes and mononuclear cells in peribronclhial (PB) and perivascular (PV) lung tissue areas and alveolar spaces is monitored.
Results can be expressed as (I) decrease of absolute cell number per mL in BALF, (II) decrease of number of neutrophils per mL in BALF, (III) reduction of relative number (percentage) of neutrophils in BALF, (IV) reduction of cytokine concentrations in BALF, as well as (V) suppression of accumulation of granulocytes and mononuclear cells in peribronchial (PB) and perivascular (PV) lung tissue areas and in alveolar spaces by pathohistological scoring of treated animals compared to positive control (LPS stimulated, but untreated animals).

human 5-LO = target: T1, human 5-LO (Homo sapiens, UniProt P09917); assay: Human 5-Lipoxygenase, 5-LO, assay in peripheral mononuclear blood cells; format: cell-based; conditions: 10 μM concentration, LTB4 readout
T1 construct: Human peripheral mononuclear blood cells were isolated using Ficoll density separation; endogenous in cells; host or cells: human peripheral blood mononuclear cells
T1 sequence (P09917 1-674): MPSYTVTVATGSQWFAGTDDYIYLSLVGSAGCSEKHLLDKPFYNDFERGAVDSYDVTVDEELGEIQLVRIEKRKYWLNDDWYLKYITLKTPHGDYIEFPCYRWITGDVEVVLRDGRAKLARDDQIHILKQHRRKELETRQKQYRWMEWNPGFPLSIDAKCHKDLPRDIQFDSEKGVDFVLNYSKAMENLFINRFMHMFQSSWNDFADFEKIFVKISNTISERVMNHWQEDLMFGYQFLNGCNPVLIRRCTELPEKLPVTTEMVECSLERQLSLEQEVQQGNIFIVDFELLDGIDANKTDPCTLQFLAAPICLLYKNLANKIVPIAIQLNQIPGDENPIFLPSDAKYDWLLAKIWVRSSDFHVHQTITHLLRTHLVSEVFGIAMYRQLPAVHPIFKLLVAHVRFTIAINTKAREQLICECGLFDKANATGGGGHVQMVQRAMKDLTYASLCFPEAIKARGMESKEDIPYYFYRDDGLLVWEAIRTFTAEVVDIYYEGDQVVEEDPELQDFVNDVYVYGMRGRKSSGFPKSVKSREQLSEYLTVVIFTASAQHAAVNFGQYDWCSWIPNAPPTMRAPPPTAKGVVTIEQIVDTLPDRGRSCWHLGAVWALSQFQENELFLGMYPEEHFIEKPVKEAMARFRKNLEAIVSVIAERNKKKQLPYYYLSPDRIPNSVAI
Protocol: (§1) All compounds were dissolved in dimethyl sulfoxide (DMSO). Final concentration of the DMSO in all tests was 1% (v/v). Inhibition in all tests is considered preferred if it exceeds 50% at 10 μM concentration (or less).
Human peripheral mononuclear blood cells were isolated using Ficoll density separation. Cells were incubated in Hanks Balanced Salt Solution (HBSS) with compounds for 15 minutes at 37° C. Substrate (arachidonic acid) was added in 20 μM final concentration and cells were incubated for another 15 minutes. LTB4 as a final product of arachidonic acid metabolism was measured using competitive enzyme immunoassay (See, e.g., Safayhi, H. et al. Planta Medica 2000, 66, 110-113) and percentage of inhibition was calculated from the levels of LTB4 in cell supernatant.

human PDE3 = target: T2, human PDE3 (Homo sapiens, UniProt Q14432); assay: Human PDE3 assay (platelets); format: biochemical; conditions: 10 μM concentration
T2 construct: Isolated human platelets are pre-incubated at 25° C; from tissue; host or cells: human platelets
T2 sequence (Q14432 whole entry): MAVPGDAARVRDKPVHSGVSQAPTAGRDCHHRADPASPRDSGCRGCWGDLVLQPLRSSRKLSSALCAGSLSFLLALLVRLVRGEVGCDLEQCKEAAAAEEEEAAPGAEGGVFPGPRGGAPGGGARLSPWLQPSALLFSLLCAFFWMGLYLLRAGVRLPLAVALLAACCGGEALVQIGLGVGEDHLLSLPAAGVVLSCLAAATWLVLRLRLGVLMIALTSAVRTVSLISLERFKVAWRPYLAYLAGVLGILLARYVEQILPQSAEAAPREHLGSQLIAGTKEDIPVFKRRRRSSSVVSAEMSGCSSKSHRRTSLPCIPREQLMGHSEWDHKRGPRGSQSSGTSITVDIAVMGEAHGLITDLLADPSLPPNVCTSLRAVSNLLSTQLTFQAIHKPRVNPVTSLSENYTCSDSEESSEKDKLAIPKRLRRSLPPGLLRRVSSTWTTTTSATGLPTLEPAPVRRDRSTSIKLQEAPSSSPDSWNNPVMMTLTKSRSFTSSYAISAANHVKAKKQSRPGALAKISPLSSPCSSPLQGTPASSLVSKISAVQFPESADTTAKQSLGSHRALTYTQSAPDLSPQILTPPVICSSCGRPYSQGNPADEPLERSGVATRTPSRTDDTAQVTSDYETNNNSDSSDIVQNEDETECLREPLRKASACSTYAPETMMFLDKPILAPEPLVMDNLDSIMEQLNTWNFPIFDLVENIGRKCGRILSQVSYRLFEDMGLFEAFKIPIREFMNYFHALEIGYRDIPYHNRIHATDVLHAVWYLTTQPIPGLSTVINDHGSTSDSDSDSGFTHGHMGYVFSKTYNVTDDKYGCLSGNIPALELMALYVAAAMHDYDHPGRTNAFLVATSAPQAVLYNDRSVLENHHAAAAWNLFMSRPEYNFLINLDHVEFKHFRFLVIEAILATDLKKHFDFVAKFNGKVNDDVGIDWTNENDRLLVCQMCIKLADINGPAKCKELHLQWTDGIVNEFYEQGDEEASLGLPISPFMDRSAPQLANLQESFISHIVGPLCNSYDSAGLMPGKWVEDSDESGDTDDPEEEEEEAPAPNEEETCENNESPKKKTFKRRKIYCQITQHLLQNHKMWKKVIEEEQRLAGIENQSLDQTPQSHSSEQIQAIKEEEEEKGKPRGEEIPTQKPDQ
Protocol: as §1
PDE3 assay. Isolated human platelets are pre-incubated at 25° C. in Tris-HCl buffer containing magnesium ions for 15 minutes. 1.01 μM tritium labeled cyclic adenosine monophosphate (cAMP) is added as substrate, followed by incubation at 25° C. for 20 minutes. Percentage of inhibition is calculated by comparing the adenosine levels in supernatant which is formed from cAMP in treated versus control cells.

Compound	reduction of percentage of neutrophils and/or their total number in BALF and/or by histological scoring (Balb/cJ mice)	inhibition of human 5-LO (human 5-LO)	inhibition of human PDE3 activity (human PDE3)
CC(=O)C(c1c(O)c2cccc(C(C)C)c2oc1=O)c1c(O)c2cccc(C(C)C)c2oc1=O [Example 19]	statistically significant reduction	significantly relevant activity	significantly inhibited
CC(C)c1cccc2c(O)c(C(CO)c3c(O)c4cccc(C(C)C)c4oc3=O)c(=O)oc12 [Example 30]	statistically significant reduction	significantly relevant activity	significantly inhibited
CC(C)c1cccc2c(O)c(C(C(=O)OCCO)c3c(O)c4cccc(C(C)C)c4oc3=O)c(=O)oc12 [Example 50]	statistically significant reduction	significantly relevant activity	significantly inhibited

From US20080153872A1, “Bis-(Coumarin) Compounds With Anti-Inflammatory Activity” (priority 2005, published 2008)
